The values that follow come from patent US20250289789A1, “REVERSIBLE LYSINE COVALENT MODIFIERS OF CDK2 AND USES THEREOF” (Terremoto Biosciences, Inc., priority 2023, published 2025).

The target in test [1] is T1, CDK1-NanoLuc fusion with CCNB1 in 293T or 293 cells (Homo sapiens, UniProt P06493).
T1 construct: host or cells: 293T (ATCC CRL-3216) or 293 (ATCC CRL-1573)
The test is described as follows: NanoBRET Target Engagement (TE) Intracellular Kinase Assay, CDK1/CCNB1. It is filed as cell-based. Particulars: NanoBRET TE intracellular kinase assay, 2-hour incubation, read-out: NanoBRET-CDK1/B1 IC50. In short, it runs like this:
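293T or 293 cells co-transfected with CDK1-NanoLuc and CCNB1 vectors, incubated 24 h, then exposed to NanoBRET Tracer K-10 plus compound for 2 h at 37° C. BRET ratio (610/450 nm) normalized to DMSO; IC50 from four-parameter logistic fit.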
(In BRET a luciferase serves as donor, and the signal depends on an acceptor being close.)

The next test concerns the target pCDK2-CCNE1 proteins (Homo sapiens, UniProt P24941). The test is described as follows: Identification of covalent binding by intact mass spectrometry, with and without competitor PF-06873600. The note with it: for Observed mass value of the covalent complex between compound and CDK2 protein: intact mass spectrometry after borohydride reduction, unmodified CDK2 34096-34097 Da; for Covalent complex formation with CDK2 protein (intact mass spectra after sodium borohydride reduction) / Binding pocket by competition: complex formation in presence of molar excess PF-06873600: pCDK2-CCNE1 1 μM, compound 1.5 μM; for Covalent complex formation with CDK2 protein (intact mass spectra after sodium borohydride reduction): 1 hour at room temperature or 37° C., no competitor; for Binding pocket by competition: complex formation in presence of molar excess PF-06873600: competitor PF-06873600 20 μM. On the procedure:
pCDK2-CCNE1 proteins (1 μM) were treated with a compound (1.5 μM) from Table 4 for 1 hour at room temperature or 37° C., with and without competitor molecule PF-06873600 (20 μM final concentration) as a specificity control. As used herein, the competitor molecule is
As used herein, the competitor molecule is 6-(difluoromethyl)-8-((1R,2R)-2-hydroxy-2-methylcyclopentyl)-2-((1-(methylsulfonyl)piperidin-4-yl)amino)pyrido[2,3-d]pyrimidin-7(8H)-one (PF-06873600). Reversible imines were captured by reductive amination with the addition of 5 mM sodium borohydride at room temperature for 5 min. Reduction reactions were quenched by diluting the sample in equal volume of 1% trifluoroacetic acid (v/v) in acetonitrile, then analyzed by LC-MS. Deconvoluted monoisotopic intensities of unmodified and compound-modified mass peaks were compared.
FIGS. 1A to 1P provide intact mass spectra for pCDK2-CCNE1 proteins after incubation with compounds of the present disclosure and subsequent sodium borohydride reduction. […] Further, FIGS. 1A to 1P each provide intact mass spectra following the incubation of pCDK2-CCNE1 proteins with a compound of the present disclosure both in the absence of a competitor molecule (i.e., PF-06873600, a molecule known to bind to and inhibit the function of CDK2); and in the presence of a significant stoichiometric excess of a competitor molecule PF-06873600.
FIGS. 2A to 2N provide intact mass spectra for pCDK2-CCNE1 proteins after incubation with compounds of the present disclosure and subsequent sodium borohydride reduction.

Test [2] concerns Phospho-Rb Ser807/811 in OVCAR3 cells. The test is described as follows: OVCAR3 Phospho-Rb Ser807/811 HTRF assay. The test is classed as cell-based. Particulars: Homo sapiens, OVCAR-3, 1 h, read-out: pRb-OVCAR3 IC50. On the procedure:
Cells were trypsinized and resuspended in 1 mM hydroxyurea (Sigma; H8627), 90% RPMI and 10% fetal bovine serum. […] Dose response curve normalized to DMSO control was plotted using four-parameter logistic model for IC50 calculation.
A general note: Time-resolved FRET reads energy transfer from a long-lived donor to a nearby acceptor.

Test [3] deals with T2, CDK4-NanoLuc fusion with CCND1 in 293T or 293 cells (Homo sapiens, UniProt P11802).
T2 construct: host or cells: 293T (ATCC CRL-3216) or 293 (ATCC CRL-1573)
T2 sequence (P11802 whole entry, the tested form may be a part): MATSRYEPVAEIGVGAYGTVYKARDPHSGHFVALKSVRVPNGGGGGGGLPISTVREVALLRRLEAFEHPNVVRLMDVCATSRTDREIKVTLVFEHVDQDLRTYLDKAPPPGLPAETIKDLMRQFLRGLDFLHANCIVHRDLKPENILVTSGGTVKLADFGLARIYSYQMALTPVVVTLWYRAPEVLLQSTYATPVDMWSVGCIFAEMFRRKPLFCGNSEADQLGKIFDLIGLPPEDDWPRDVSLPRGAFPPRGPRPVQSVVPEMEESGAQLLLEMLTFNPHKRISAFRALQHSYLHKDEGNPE
T2 sequence (P24385 whole entry partner, the tested form may be a part): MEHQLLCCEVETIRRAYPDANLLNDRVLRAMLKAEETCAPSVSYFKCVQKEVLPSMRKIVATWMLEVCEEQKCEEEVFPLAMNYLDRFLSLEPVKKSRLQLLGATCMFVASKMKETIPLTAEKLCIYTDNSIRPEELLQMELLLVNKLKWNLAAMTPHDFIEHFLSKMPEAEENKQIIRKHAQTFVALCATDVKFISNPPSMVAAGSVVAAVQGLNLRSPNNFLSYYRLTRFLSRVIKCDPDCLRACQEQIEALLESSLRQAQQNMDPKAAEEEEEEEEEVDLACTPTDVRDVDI
The test is described as follows: NanoBRET Target Engagement (TE) Intracellular Kinase Assay, CDK4/CCND1. The test is classed as cell-based. The note with it: NanoBRET TE intracellular kinase assay, 2-hour incubation, read-out: NanoBRET-CDK4/D1 IC50.

In test [4] the target is T3, CDK2-NanoLuc fusion with CCNE1 in 293T or 293 cells (Homo sapiens, UniProt P24941).
T3 construct: host or cells: 293T (ATCC CRL-3216) or 293 (ATCC CRL-1573)
The test is described as follows: NanoBRET Target Engagement (TE) Intracellular Kinase Assay, CDK2/CCNE1. It is filed as cell-based. Particulars: 2-hour incubation.

[5] abbreviates: OVCAR3 cells, Phospho-Rb Ser807/811 HTRF, 1 hour incubation.
Where [6] appears, read: NanoBRET TE intracellular kinase assay, read-out: NanoBRET-CDK2/E1 IC50.

The structures appear in SMILES notation. Where “and” joins values, the source holds several entries; their conditions need not be identical. Identical values can stand only once. Entries after “also recorded” stand apart in the source; their conditions may differ. Like-named read-outs stand apart in the source and are kept apart here.

T1 sequence (P06493 whole entry, the tested form may be a part): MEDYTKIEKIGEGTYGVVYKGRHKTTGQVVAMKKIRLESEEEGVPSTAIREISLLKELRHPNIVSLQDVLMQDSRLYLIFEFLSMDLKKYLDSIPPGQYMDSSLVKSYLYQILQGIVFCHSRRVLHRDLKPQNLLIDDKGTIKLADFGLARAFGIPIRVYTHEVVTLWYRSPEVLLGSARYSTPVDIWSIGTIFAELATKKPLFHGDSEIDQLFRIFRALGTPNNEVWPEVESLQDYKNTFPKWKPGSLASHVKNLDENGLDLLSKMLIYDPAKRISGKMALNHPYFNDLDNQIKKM
T1 sequence (P14635 whole entry partner, the tested form may be a part): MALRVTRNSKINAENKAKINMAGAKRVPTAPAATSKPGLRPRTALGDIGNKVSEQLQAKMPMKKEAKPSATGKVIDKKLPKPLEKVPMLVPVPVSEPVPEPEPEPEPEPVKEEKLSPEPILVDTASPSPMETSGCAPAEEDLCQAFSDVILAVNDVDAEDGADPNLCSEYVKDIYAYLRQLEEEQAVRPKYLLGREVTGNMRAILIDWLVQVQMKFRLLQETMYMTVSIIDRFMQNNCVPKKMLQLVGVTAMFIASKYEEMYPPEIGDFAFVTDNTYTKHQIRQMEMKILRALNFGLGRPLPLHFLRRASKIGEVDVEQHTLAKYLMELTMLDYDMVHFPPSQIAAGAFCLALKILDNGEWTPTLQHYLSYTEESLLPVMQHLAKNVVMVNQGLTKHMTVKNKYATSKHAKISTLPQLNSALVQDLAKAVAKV

Consider `COc1cc(O)c(C=O)c([C@@H]2C[C@H]2C(=O)Nc2cc([C@H]3CC[C@@H](OC(=O)NC(C)C)C3)[nH]n2)c1` (mixture of isomers) [Compound 89, (1R,3S)-3-{5-[trans-2-(2-formyl-3-hydroxy-5-methoxyphenyl)cyclopropaneamido]-2H-pyrazol-3-yl}cyclopentyl N-isopropylcarbamate], for which the IC50 in test [1] was determined as 11.3 nM; in test [2] (setting [5]), 44.7 nM; in test [3], 1280 nM; in test [4] (setting [6]), 2.27 nM. Besides, at pCDK2-CCNE1 proteins, the “Observed mass value of the covalent complex between compound and CDK2 protein” value (from here on “Observed mass value”) was 34550 Da. Also, at pCDK2-CCNE1 proteins, the “Covalent complex formation with CDK2 protein (intact mass spectra after sodium borohydride reduction)” value is given as “resulted in covalent complex formation”.
With `CC(C)NC(=O)O[C@@H]1CC[C@H](c2cc(NC(=O)COc3cccc(O)c3C=O)n[nH]2)C1` [Compound 11, (1R,3S)-3-{5-[2-(2-formyl-3-hydroxyphenoxy)acetamido]-2H-pyrazol-3-yl}cyclopentyl N-isopropylcarbamate], the IC50 was 17.3 nM in test [1], 102 nM in test [2] (setting [5]), above 9900 nM in test [3] and 3.72 nM in test [4] (setting [6]). Also, the “Observed mass value” value at pCDK2-CCNE1 proteins was determined as 34511 Da. Further, the “Covalent complex formation with CDK2 protein (intact mass spectra after sodium borohydride reduction)” value at pCDK2-CCNE1 proteins is “formed a covalent complex with CDK2 protein; also recorded: resulted in covalent complex formation”. Besides, the “Binding pocket by competition: complex formation in presence of molar excess PF-06873600” value (“Binding pocket by competition” below) at pCDK2-CCNE1 proteins is reported as “bound to the same binding pocket of CDK2 as the competitor molecule PF-06873600”.
For `CC(C)NC(=O)O[C@@H]1CC[C@H](c2cc(Nc3cc(Oc4cccc(O)c4C=O)ccn3)n[nH]2)C1` [Compound 13, (1R,3S)-3-(5-{[4-(2-formyl-3-hydroxyphenoxy)pyridin-2-yl]amino}-2H-pyrazol-3-yl)cyclopentyl N-isopropylcarbamate; trifluoroacetic acid], the IC50 in test [1] came to 92.9 nM; in test [2] (setting [5]), 701 nM; in test [3] it was 4700 nM; in test [4] (setting [6]), 12.4 nM. Also, the “Observed mass value” value on pCDK2-CCNE1 proteins is 34546 Da. Further, the “Covalent complex formation with CDK2 protein (intact mass spectra after sodium borohydride reduction)” value at pCDK2-CCNE1 proteins is “formed a covalent complex with CDK2 protein”. In addition, the “Binding pocket by competition” value at pCDK2-CCNE1 proteins is “bound to the same binding pocket of CDK2 as the competitor molecule PF-06873600”.
As to `CC(C)c1ccc(O[C@@H]2CC[C@H](c3cc(NC(=O)CCc4cccc(O)c4C=O)n[nH]3)C2)nn1` [Compound 14, 3-(2-formyl-3-hydroxyphenyl)-N-{5-[(1S,3R)-3-[(6-isopropylpyridazin-3-yl)oxy]cyclopentyl]-1H-pyrazol-3-yl}propanamide], the IC50 in test [1] is 1690 nM; in test [3], 779 nM; in test [4] (setting [6]), 138 nM. Also, at pCDK2-CCNE1 proteins, the “Covalent complex formation with CDK2 protein (intact mass spectra after sodium borohydride reduction)” value is “resulted in covalent complex formation”.
Turning to `CC(C)NC(=O)O[C@@H]1CC[C@H](c2cc(NC(=O)Cc3cnn(-c4cccc(O)c4C=O)c3)n[nH]2)C1` [Compound 16, (1R,3S)-3-(5-{2-[1-(2-formyl-3-hydroxyphenyl)pyrazol-4-yl]acetamido}-2H-pyrazol-3-yl)cyclopentyl N-isopropylcarbamate; trifluoroacetic acid], the IC50 in test [1] stood at 75.9 nM; in test [2], 585 nM; in test [3] it was 626 nM; in test [4] (NanoBRET-CDK2/E1 IC50, NanoBRET TE intracellular kinase assay), 34.3 nM. Moreover, at pCDK2-CCNE1 proteins, the “Observed mass value” value is listed as 34561 Da. Besides, the “Covalent complex formation with CDK2 protein (intact mass spectra after sodium borohydride reduction)” value on pCDK2-CCNE1 proteins is “formed a covalent complex with CDK2 protein”. For the same compound, at pCDK2-CCNE1 proteins, the “Binding pocket by competition” value is recorded as “bound to the same binding pocket of CDK2 as the competitor molecule PF-06873600”.
As to `CC(C)NC(=O)O[C@@H]1CC[C@H](c2cc(NC(=O)c3cc(-c4cccc(O)c4C=O)nn3C)n[nH]2)C1` [Compound 17, (1R,3S)-3-{5-[5-(2-formyl-3-hydroxyphenyl)-2-methylpyrazole-3-amido]-2H-pyrazol-3-yl}cyclopentyl N-isopropylcarbamate 2,2,2-trifluoroacetate], the IC50 worked out at 16.7 nM in test [1], 226 nM in test [2] (setting [5]), 4580 nM in test [3] and 4.87 nM in test [4] (setting [6]). Also, the “Observed mass value” value on pCDK2-CCNE1 proteins stood at 34561 Da. Besides, the “Covalent complex formation with CDK2 protein (intact mass spectra after sodium borohydride reduction)” value on pCDK2-CCNE1 proteins (2,2,2-trifluoroacetate) is “formed a covalent complex with CDK2 protein; also recorded: resulted in covalent complex formation”. Also, at pCDK2-CCNE1 proteins, the “Binding pocket by competition” value is reported as “bound to the same binding pocket of CDK2 as the competitor molecule PF-06873600”.
As for `CC(C)NC(=O)O[C@@H]1CC[C@H](c2cc(NC(=O)c3cc(-c4cccc(C=O)c4O)nn3C)n[nH]2)C1` [Compound 18, (1R,3S)-3-{5-[5-(3-formyl-2-hydroxyphenyl)-2-methylpyrazole-3-amido]-2H-pyrazol-3-yl}cyclopentyl N-isopropylcarbamate trifluoroacetic acid], the IC50 in test [1] was 703 nM; in test [2] (setting [5]) it was 4640 nM; in test [3] it was 1610 nM; in test [4] (setting [6]) it was 11.4 nM. The “Covalent complex formation with CDK2 protein (intact mass spectra after sodium borohydride reduction)” value at pCDK2-CCNE1 proteins is on record as “resulted in covalent complex formation”.
Consider `COc1cc(O)c(C=O)c(CCC(=O)Nc2cc([C@H]3CC[C@@H](OC(=O)NC(C)C)C3)[nH]n2)c1` [Compound 22, (1R,3S)-3-(3-(3-(2-formyl-3-hydroxy-5-methoxyphenyl)propanamido)-1H-pyrazol-5-yl)cyclopentyl isopropylcarbamate 2,2,2-trifluoroacetate], for which the IC50 in test [1] was determined as 100 nM; in test [2] (setting [5]) it was 200 nM; in test [3], 3690 nM; in test [4] (setting [6]) it was 4.81 nM. Besides, the “Observed mass value” value at pCDK2-CCNE1 proteins (2,2,2-trifluoroacetate) was 34538-34539 Da and 34539 Da. The “Covalent complex formation with CDK2 protein (intact mass spectra after sodium borohydride reduction)” value at pCDK2-CCNE1 proteins is “formed a covalent complex with CDK2 protein”. The “Binding pocket by competition” value at pCDK2-CCNE1 proteins is listed as “bound to the same binding pocket of CDK2 as the competitor molecule PF-06873600”.
As to `CC1(NC(=O)O[C@@H]2CC[C@H](c3cc(NC(=O)CCc4cccc(O)c4C=O)n[nH]3)C2)CC1` [Compound 23, (1R,3S)-3-(3-(3-(2-formyl-3-hydroxyphenyl)propanamido)-1H-pyrazol-5-yl)cyclopentyl (1-methylcyclopropyl)carbamate trifluoroacetic acid], the values for the IC50 in test [1], in test [3] and in test [4] (setting [6]) were 125 nM, 969 nM and 10.9 nM, respectively. For the same compound, the “Covalent complex formation with CDK2 protein (intact mass spectra after sodium borohydride reduction)” value on pCDK2-CCNE1 proteins was “resulted in covalent complex formation”.
As for `CC(C)NC(=O)O[C@@H]1CC[C@H](c2cc(NC(=O)[C@@H](C)Oc3cccc(O)c3C=O)n[nH]2)C1` [Compound 32, (1R,3S)-3-{5-[(2R)-2-(2-formyl-3-hydroxyphenoxy)propanamido]-2H-pyrazol-3-yl}cyclopentyl N-isopropylcarbamate], the IC50 in test [1] was 52 nM; in test [2] (setting [5]) it was 352 nM; in test [3], 4920 nM; in test [4] (setting [6]), 4.66 nM. The “Observed mass value” value at pCDK2-CCNE1 proteins is recorded as 34525 Da. Moreover, the “Covalent complex formation with CDK2 protein (intact mass spectra after sodium borohydride reduction)” value on pCDK2-CCNE1 proteins is listed as “formed a covalent complex with CDK2 protein”. The “Binding pocket by competition” value at pCDK2-CCNE1 proteins was “bound to the same binding pocket of CDK2 as the competitor molecule PF-06873600”.
